pIC50: −log10 of the molar value.
Experiments:
MAPK14 (human) [1] = biological target: MAPK14 (human) (UniProt Q16539); test: Inhibition of IL-6 Production in Whole Blood
MAPK14 (human) [2] = biological target: MAPK14 (human) (UniProt Q16539); test: Inhibition of IL-1 Production in Whole Blood
MAPK14 (human) [3] = biological target: MAPK14 (human) (UniProt Q16539); test: Inhibition of TNF Production in Whole Blood
MAPK14 (human) [4] = biological target: MAPK14 (human) (UniProt Q16539); test: Inhibition of TNF-alpha Production in LPS-Stimulated PBMCs; details: pbmc
MAPK14 (human) [5] = biological target: MAPK14 (human) (UniProt Q16539); test: Inhibition of IL-1 Production in LPS-Stimulated PBMCs; details: pbmc

MAPK14 (human), sequence (Q16539 whole entry, looked up): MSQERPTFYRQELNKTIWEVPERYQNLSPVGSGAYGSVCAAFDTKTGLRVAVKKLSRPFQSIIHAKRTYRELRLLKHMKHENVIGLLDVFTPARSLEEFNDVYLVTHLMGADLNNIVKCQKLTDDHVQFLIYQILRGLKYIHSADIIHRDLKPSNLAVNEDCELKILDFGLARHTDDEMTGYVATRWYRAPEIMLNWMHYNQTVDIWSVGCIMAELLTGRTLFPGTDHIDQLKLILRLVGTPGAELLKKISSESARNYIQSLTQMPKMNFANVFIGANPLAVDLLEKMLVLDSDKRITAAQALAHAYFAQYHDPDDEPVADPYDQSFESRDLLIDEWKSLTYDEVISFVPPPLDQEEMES

SMILES | pIC50 (MAPK14 (human) [1]) | pIC50 (MAPK14 (human) [2]) | pIC50 (MAPK14 (human) [3]) | pIC50 (MAPK14 (human) [4]) | pIC50 (MAPK14 (human) [5])
Nc1ccc(Cl)c(C2=C3C=CC(Sc4ccc(F)cc4)=NN3CNC2=O)c1Cl | < 6.30 | < 6.30 | < 6.30 | – | –
COc1cc(Cl)c(C2=C3C=CC(Sc4ccc(F)cc4)=NN3CNC2=O)cc1OC | – | – | – | < 6.30 | –
Cc1ccccc1-c1cccc(N(C(N)=O)c2c(F)cccc2F)n1 | 6.30 to 6.60 | < 6.30 | < 6.30 | – | –
CN(C)C=Nc1ccc(C2=C3C=CC(Sc4ccc(F)cc4Cl)=NN3CNC2=O)c(Cl)c1 | 6.30 to 6.60 | 6.30 to 6.60 | < 6.30 | – | –
COc1ccc(-c2cccc(C(C(N)=O)c3c(Cl)cccc3Cl)n2)cc1 (configuration not stated) | – | – | – | – | < 6.30
NC(=O)C(c1cccc(-c2ccccc2)n1)c1c(Cl)cccc1Cl (configuration not stated) | < 6.30 | < 6.30 | < 6.30 | – | –
O=c1ncn2nc(Sc3ccccc3)ccc2c1-c1c(F)cccc1C(F)(F)F | – | – | – | < 6.30 | < 6.30
O=C(CCl)Nc1ccc(C2=C3C=CC(Sc4ccc(F)cc4)=NN3CNC2=O)c(Cl)c1 | < 6.30 | < 6.30 | < 6.30 | – | –
NC(=O)C(c1cccc(-c2ccccc2CN2CCCC2)n1)c1c(Cl)cccc1Cl (configuration not stated) | – | – | – | < 6.30 | 6.30 to 7.00
N=C(N)Nc1cc(F)c(F)cc1SC1=NN2CNC(=O)C(c3c(Cl)cccc3Cl)=C2C=C1 | – | – | – | < 6.30 | < 6.30
O=c1ncn2nc(Sc3ccccc3)ccc2c1-c1c(F)cccc1F | – | – | – | < 6.30 | < 6.30
O=C1NCN2N=C(Sc3ccccc3O)C=CC2=C1c1c(Cl)cccc1Cl | > 6.60 | 6.30 to 6.60 | 6.30 to 6.60 | – | –
Nc1cc(C(F)(F)F)ccc1SC1=NN2CNC(=O)C(c3c(Cl)cccc3Cl)=C2C=C1 | – | – | – | < 6.30 | 6.30 to 7.00
N#Cc1ccccc1SC1=NN2CNC(=O)C(c3c(Cl)cccc3Cl)=C2C=C1 | < 6.30 | < 6.30 | < 6.30 | – | –
NC(=O)C(c1cccc(-c2ccccc2CNCCO)n1)c1c(Cl)cccc1Cl (configuration not stated) | – | – | – | < 6.30 | < 6.30
NC(=O)Nc1cc(F)ccc1SC1=NN2CNC(=O)C(c3c(Cl)cccc3Cl)=C2C=C1 | – | – | – | < 6.30 | < 6.30
Cc1ccccc1-c1cccc(N(C(N)=O)c2c(Cl)cccc2Cl)n1 | < 6.30 | < 6.30 | < 6.30 | – | –
Cc1ccccc1SC1=NN2CNC(=O)C(c3c(Cl)cccc3Cl)=C2C=C1 | 6.30 to 6.60 | < 6.30 | – | – | –
Cc1ccccc1-c1c(=O)ncn2nc(Sc3ccccc3)ccc12 | – | – | – | < 6.30 | < 6.30
O=c1ncn2nc(Sc3ccccc3)ccc2c1-c1ccc(Cl)c(Cl)c1 | – | – | – | < 6.30 | < 6.30
NC(=O)C(c1cccc(-c2ccccc2C=NO)n1)c1c(Cl)cccc1Cl (configuration not stated) | < 6.30 | < 6.30 | < 6.30 | < 6.30 | –
O=C1NCN2N=C(Sc3ccccc3CO)C=CC2=C1c1c(Cl)cccc1Cl | > 6.60 | 6.30 to 6.60 | > 6.60 | – | –
O=C1NCN2N=C(Sc3ccc(F)cc3)C=CC2=C1c1c(Cl)cccc1Cl | 6.30 to 6.60 | < 6.30 | – | – | –
Nc1cc(F)ccc1SC1=NN2CNC(=O)C(c3c(Cl)cccc3Cl)=C2C=C1 | > 6.60 | 6.30 to 6.60 | 6.30 to 6.60 | – | –
COc1ccccc1-c1c(=O)ncn2nc(Sc3ccccc3)ccc12 | – | – | – | < 6.30 | < 6.30
O=C(CN1CCOCC1)Nc1ccc(C2=C3C=CC(Sc4ccc(F)cc4)=NN3CNC2=O)c(Cl)c1 | 6.30 to 6.60 | < 6.30 | < 6.30 | – | –
Nc1ccc(C2=C3C=CC(Sc4ccc(F)cc4)=NN3CNC2=O)c(Cl)c1 | 6.30 to 6.60 | < 6.30 | < 6.30 | – | –

SMILES | pIC50 (MAPK14 (human) [1]) | pIC50 (MAPK14 (human) [2]) | pIC50 (MAPK14 (human) [3]) | pIC50 (MAPK14 (human) [4]) | pIC50 (MAPK14 (human) [5])
NC(=O)N(c1cccc(-c2ccccc2)n1)c1c(Cl)cccc1Cl | < 6.30 | < 6.30 | < 6.30 | – | –
O=C1NCN2N=C(Sc3ccc(F)cc3Cl)C=CC2=C1c1c(Cl)cccc1Cl | > 6.60 | 6.30 to 6.60 | 6.30 to 6.60 | – | –
NC(=O)C(c1cccc(-c2ccc(Cl)cc2Cl)n1)c1c(Cl)cccc1Cl (configuration not stated) | < 6.30 | < 6.30 | < 6.30 | – | –
Cc1cccc(-c2cccc(C(C(N)=O)c3c(Cl)cccc3Cl)n2)c1 (configuration not stated) | < 6.30 | < 6.30 | < 6.30 | < 6.30 | –
COc1ccc(C2=C3C=CC(Sc4ccc(F)cc4)=NN3CNC2=O)c(Cl)c1OC | < 6.30 | < 6.30 | < 6.30 | – | –
Nc1ccccc1SC1=NN2CNC(=O)C(c3c(Cl)cccc3Cl)=C2C=C1 | < 6.30 | < 6.30 | < 6.30 | – | –
COc1ccc(C2=C3C=CC(Sc4ccc(F)cc4)=NN3CNC2=O)c(Cl)c1 | < 6.30 | < 6.30 | < 6.30 | < 6.30 | –
O=c1ncn2nc(Sc3ccccn3)ccc2c1-c1c(Cl)cccc1Cl | – | < 6.30 | – | < 6.30 | –
NC(=O)N(c1cccc(-c2ccc(F)cc2)n1)c1c(F)cccc1F | < 6.30 | < 6.30 | < 6.30 | – | –
O=c1ncn2nc(Sc3ccc(F)cc3Cl)ccc2c1-c1c(Cl)cccc1Cl | 6.30 to 6.60 | 6.30 to 6.60 | 6.30 to 6.60 | – | –
NC(=O)C(c1ccc(C(=O)c2ccccc2)cn1)c1c(Cl)cccc1Cl (configuration not stated) | – | – | – | – | < 6.30
O=C1NCN2N=C(Sc3ccc(F)cc3Cl)C=CC2=C1c1cc2c(cc1Cl)OCO2 | 6.30 to 6.60 | < 6.30 | < 6.30 | – | –
NC(=O)C(c1cccc(-c2ccccc2CO)n1)c1c(Cl)cccc1Cl (configuration not stated) | < 6.30 | < 6.30 | < 6.30 | – | –
O=C1NCN2N=C(Sc3ccccc3Br)C=CC2=C1c1c(Cl)cccc1Cl | 6.30 to 6.60 | < 6.30 | < 6.30 | – | –
Cc1cc(F)ccc1-c1cccc(N(C(N)=O)c2cc3c(cc2Cl)OCO3)n1 | < 6.30 | < 6.30 | < 6.30 | – | –
NC(=O)C(c1cccc(-c2cccc3ccccc23)n1)c1c(Cl)cccc1Cl (configuration not stated) | < 6.30 | < 6.30 | < 6.30 | – | –
NC(=O)C(c1ccc(C(O)c2ccccc2)cn1)c1c(Cl)cccc1Cl (configuration not stated) | – | – | – | – | 6.30 to 7.00
O=C1NCN2N=C(Sc3ccc(F)cc3)C=CC2=C1c1cc2c(cc1Cl)OCO2 | 6.30 to 6.60 | 6.30 to 6.60 | < 6.30 | – | –
Cc1cc(F)ccc1-c1cccc(N(C(N)=O)c2c(F)cccc2F)n1 | 6.30 to 6.60 | 6.30 to 6.60 | 6.30 to 6.60 | – | –
Cc1cc(F)ccc1-c1cccc(C(C(N)=O)c2c(Cl)cc(N)cc2Cl)n1 (configuration not stated) | < 6.30 | < 6.30 | < 6.30 | – | –
CC(=O)Nc1ccc(C2=C3C=CC(Sc4ccc(F)cc4)=NN3CNC2=O)c(Cl)c1 | < 6.30 | < 6.30 | < 6.30 | – | –
Cc1ccccc1-c1cccc(C(C(N)=O)c2c(Cl)cccc2Cl)n1 (configuration not stated) | < 6.30 | < 6.30 | < 6.30 | < 6.30 | –
Cc1cc(Cl)ccc1SC1=NN2CNC(=O)C(c3c(Cl)cccc3Cl)=C2C=C1 | 6.30 to 6.60 | < 6.30 | 6.30 to 6.60 | – | –
Cc1cc(F)ccc1-c1cccc(N(C(N)=O)c2c(Cl)cccc2Cl)n1 | 6.30 to 6.60 | < 6.30 | < 6.30 | – | –
Cc1ccc(SC2=NN3CNC(=O)C(c4c(Cl)cccc4Cl)=C3C=C2)c(C)c1 | < 6.30 | < 6.30 | < 6.30 | – | –
Cc1cc(F)ccc1-c1cccc(C(C(N)=O)c2c(Cl)cccc2Cl)n1 (configuration not stated) | < 6.30 | < 6.30 | < 6.30 | – | –

Reference: the Kinase Knowledgebase extract (Sharma et al. 2016)
